Assay results from patent US4740233A, “Substituted 1,2,4-triazolo[1,5-a]-pyrimidine-2-sulfonamides and compositions and methods of controlling undesired vegetation and suppressing the nitrification of ammonium nitrogen in soil” (The Dow Chemical Company, priority 1986, dated 1988).

How the values were obtained:
[1] = test system: nitrification of ammonium nitrogen; assay: Suppression of nitrification of ammonium nitrogen in soil; conditions: 27° C.
Method in brief: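 Soil (20 g) moistened to its 1/3 bar tension value, mixed with test chemical and incubated sealed for two weeks at 27° C. Nitrate extracted with ammonium sulfate solution and measured by nitrate-specific ion electrode; value given as % NH4-N remaining.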

[2] = test system: annual sugar beet variety (SLC03); assay: Plant growth regulator activity, preemergence; type: in vivo; conditions: for minimal effective concentration: Beta vulgaris, pre-emergence, 6-7 weeks, read-out: Bolting Inhibition (preemergence), concentration with observed effect; for observed effect (preemergence): 400 ppm
Description: Using a regular biennial variety, even a bolting-susceptible variety would require a cold treatment of around 10-16 weeks plus a hormone treatement in conjunction with specific light intensities. Thus, for a screening organism, we selected one which would consistently produce bolting on a regular schedule. The screen is run with an annual sugar beet variety (SLC03) provided by Dr. Richard J. Hecker, Fort Collins, Colo. This variety is an inbred which bolts in the 6- to 8-leaf stage without any need for vernalization. This allows the screen to be run entirely in the greenhouse with all 110 chemical compounds tested on one tray. The sugarbeets are grown in 3×3 inch square pots in a greenhouse sandy loam potting mix. The sugarbeets are sprayed with test compounds when they are 2 to 3 weeks old (2 true leaves). The compounds are dissolved in acetone and diluted with water containing Tween 20 as a wetting agent. The concentration of acetone in the final spray is 20% and the concentration of Tween 20 is 0.05 percent. The plants are examined for the appearance of a bolt 4 weeks after spraying.
Preemergence tests are conducted by spraying formulated chemical on seeds placed on potting soil. The sprayed seeds are then covered with 1/4 inch of potting soil and the pots are watered. Bolting is evaluated 6-7 weeks after the initiation of the test. At this time untreated plants have a vigorous bolting stem with visible flowers.

jimsonweed = assay: Preemergent control of plant species; type: in vivo, Datura stramonium; conditions: Datura stramonium, pre-emergence, 336 h; 0.25 lb/acre; read-out: percent preemergent control
Method in brief: (§1)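 Growth reduction relative to untreated plants of the same species, assessed two weeks after treatment, defines the control value. Compositions, mostly aqueous emulsions, were deposited uniformly on seeded greenhouse soil beds at the tabulated rates, with a water-treated bed as reference.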

cotton = assay: Preemergent control of plant species; type: in vivo, Gossypium spp.; conditions: Gossypium hirsutum, pre-emergence, 336 h; 0.25 lb/acre; read-out: percent preemergent control
Method in brief: as §1

wild oats = assay: Preemergent control of plant species; type: in vivo; conditions: Avena fatua, pre-emergence, 336 h; 0.25 lb/acre; read-out: percent preemergent control
Method in brief: as §1

yellow nutsedge [3] = assay: Preemergent control of plant species; type: in vivo, Cyperus esculentus; conditions: Cyperus, pre-emergence, 336 h; 0.25 lb/acre; read-out: percent preemergent control
Method in brief: as §1

rape = assay: Preemergent control of plant species; type: in vivo, Brassica napus; conditions: Brassica napus, pre-emergence, 336 h; 0.25 lb/acre; read-out: percent preemergent control
Method in brief: as §1

crabgrass = assay: Preemergent control of plant species; type: in vivo, Digitaria spp.; conditions: Digitaria sanguinalis, pre-emergence, 336 h; 0.25 lb/acre; read-out: percent preemergent control
Method in brief: as §1

sugar beet = assay: Preemergent control of plant species; type: in vivo, Beta saccharifera; conditions: Beta vulgaris, pre-emergence, 336 h; 0.25 lb/acre; read-out: percent preemergent control
Method in brief: as §1

yellow nutsedge [4] = assay: Control of aquatic plant species (paddy water); type: in vivo, Cyperus esculentus; conditions: Cyperus, 216 h, nine days, read-out: Percent control
Method in brief: (§2)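 1-2 inch plants transplanted into ~2 in soil, flooded ~1 in deep; acetone concentrate injected into floodwater, volume adjusted for target concentration; % control scored at 9 days.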

annual morning glory = assay: Preemergent control of plant species; type: in vivo, Ipomoea spp.; conditions: Ipomoea, pre-emergence, 336 h; 0.25 lb/acre; read-out: percent preemergent control
Method in brief: as §1

rice [5] = assay: Control of aquatic plant species (paddy water); type: in vivo, Oryza sativa; conditions: Oryza sativa, 216 h, nine days, read-out: Percent control
Method in brief: as §2

yellow foxtail = assay: Preemergent control of plant species; type: in vivo, Setaria lutescens; conditions: Setaria, pre-emergence, 336 h; 0.25 lb/acre; read-out: percent preemergent control
Method in brief: as §1

sorghum = assay: Preemergent control of plant species; type: in vivo, Sorghum vulgare; conditions: Sorghum, pre-emergence, 336 h; 0.25 lb/acre; read-out: percent preemergent control
Method in brief: as §1

johnson grass = assay: Preemergent control of plant species; type: in vivo, Sorghum halepense; conditions: Sorghum halepense, pre-emergence, 336 h; 0.25 lb/acre; read-out: percent preemergent control
Method in brief: as §1

barnyardgrass [6] = assay: Preemergent control of plant species; type: in vivo, Echinochloa crusgalli; conditions: Echinochloa crus-galli, pre-emergence, 336 h; 0.25 lb/acre; read-out: percent preemergent control
Method in brief: as §1

velvetleaf = assay: Preemergent control of plant species; type: in vivo, Abutilon theophrasti; conditions: Abutilon theophrasti, pre-emergence, 336 h; 0.25 lb/acre; read-out: percent preemergent control
Method in brief: as §1

sprangletop = assay: Control of aquatic plant species (paddy water); type: in vivo, Leptochloa filiformis; conditions: Leptochloa filiformis, 216 h, nine days, read-out: Percent control
Method in brief: as §2

rice [7] = assay: Preemergent control of plant species; type: in vivo, Oryza sativa; conditions: Oryza sativa, pre-emergence, 336 h; 0.25 lb/acre; read-out: percent preemergent control
Method in brief: as §1

corn = assay: Preemergent control of plant species; type: in vivo, Zea mays; conditions: Zea mays, pre-emergence, 336 h; 0.25 lb/acre; read-out: percent preemergent control
Method in brief: as §1

wheat = assay: Preemergent control of plant species; type: in vivo, Triticum aestivum; conditions: Triticum aestivum, pre-emergence, 336 h; 0.25 lb/acre; read-out: percent preemergent control
Method in brief: as §1

pigweed = assay: Preemergent control of plant species; type: in vivo, Amaranthus spp.; conditions: Amaranthus retroflexus, pre-emergence, 336 h; 0.25 lb/acre; read-out: percent preemergent control
Method in brief: as §1

soybean = assay: Preemergent control of plant species; type: in vivo, Glycine max.; conditions: Glycine max, pre-emergence, 336 h; 0.25 lb/acre; read-out: percent preemergent control
Method in brief: as §1

barnyardgrass [8] = assay: Control of aquatic plant species (paddy water); type: in vivo, Echinochloa crusgalli; conditions: Echinochloa crus-galli, 216 h, nine days, read-out: Percent control
Description: In testing for such utility, the plant species to be tested were transplanted into 16 oz. containers into about 2 inches of soil when they were in the 1-2 inch stage and then flooded to a depth of about 1 inch. An acetone concentrate of the chemical to be tested was then injected into the paddy water, the volume injected being varied as desired to provide the desired concentration. Percent control was evaluated nine days after application.

Cc1cc(C)n2nc(S(=O)(=O)Nc3ccccc3C#N)nc2n1 [Compound 14]
% NH4-N Remaining After 2 Weeks Incubation ([1]; 0.01 ppm): 0%
% NH4-N Remaining After 2 Weeks Incubation ([1]; 0.1 ppm): 10%
% NH4-N Remaining After 2 Weeks Incubation ([1]; 1 ppm): 52%
% NH4-N Remaining After 2 Weeks Incubation ([1]; 10 ppm): 77%
minimal effective concentration [2]: 400 µg/mL

CCN(C)S(=O)(=O)c1ccccc1NS(=O)(=O)c1nc2nc(C)cc(C)n2n1 [Compound 16]
% NH4-N Remaining After 2 Weeks Incubation ([1]; 0.01 ppm): 0%
% NH4-N Remaining After 2 Weeks Incubation ([1]; 0.125 ppm): 0%
% NH4-N Remaining After 2 Weeks Incubation ([1]; 1 ppm): 26%
% NH4-N Remaining After 2 Weeks Incubation ([1]; 10 ppm): 67%
minimal effective concentration [2]: 400 µg/mL

Cc1cc(C)n2nc(S(=O)(=O)Nc3cc(C(F)(F)F)ccc3Cl)nc2n1 [Compound 52]
% NH4-N Remaining After 2 Weeks Incubation ([1]; 0.01 ppm): 0%
% NH4-N Remaining After 2 Weeks Incubation ([1]; 0.1 ppm): 39%
% NH4-N Remaining After 2 Weeks Incubation ([1]; 1 ppm): 74%
% NH4-N Remaining After 2 Weeks Incubation ([1]; 10 ppm): 91%
minimal effective concentration [2]: 100 µg/mL

C=CCSc1ccccc1NS(=O)(=O)c1nc2nc(C)cc(C)n2n1 [Compound 66]
% NH4-N Remaining After 2 Weeks Incubation ([1]; 0.06 ppm): 0%
% NH4-N Remaining After 2 Weeks Incubation ([1]; 0.25 ppm): 41%
% NH4-N Remaining After 2 Weeks Incubation ([1]; 1 ppm): 66%
% NH4-N Remaining After 2 Weeks Incubation ([1]; 4 ppm): 78%
minimal effective concentration [2]: 400 µg/mL

Cc1cc(C)n2nc(S(=O)(=O)Nc3ccccc3C(=O)c3ccccc3)nc2n1 [Compound 95]
% NH4-N Remaining After 2 Weeks Incubation ([1]; 0.06 ppm): 26%
% NH4-N Remaining After 2 Weeks Incubation ([1]; 0.25 ppm): 36%
% NH4-N Remaining After 2 Weeks Incubation ([1]; 1 ppm): 53%
% NH4-N Remaining After 2 Weeks Incubation ([1]; 4 ppm): 67%
minimal effective concentration [2]: 400 µg/mL

Cc1nc2nc(S(=O)(=O)Nc3c(Cl)cccc3Cl)nn2c(C)c1C [Compound 111]
pest or weed control at 280.212 g/ha (jimsonweed): 95%
plant injury at 280.212 g/ha (cotton): 20%
pest or weed control at 280.212 g/ha (wild oats): 0%
pest or weed control at 280.212 g/ha (yellow nutsedge [3]): 93%
plant injury at 280.212 g/ha (rape): 95%
pest or weed control at 280.212 g/ha (crabgrass): 90%
plant injury at 280.212 g/ha (sugar beet): 90%
pest or weed control at 4000 g/ha (yellow nutsedge [4]; 4.0 Kg/Ha): 99%
pest or weed control at 280.212 g/ha (annual morning glory): 20%
pest or weed control at 4000 g/ha (rice [5]; 4.0 Kg/Ha): 93%
% NH4-N Remaining After 2 Weeks Incubation ([1]; 0.06 ppm): 22%
% NH4-N Remaining After 2 Weeks Incubation ([1]; 0.25 ppm): 60%
% NH4-N Remaining After 2 Weeks Incubation ([1]; 1 ppm): 69%
% NH4-N Remaining After 2 Weeks Incubation ([1]; 4 ppm): 92%
pest or weed control at 280.212 g/ha (yellow foxtail): 30%
plant injury at 280.212 g/ha (sorghum): 65%
pest or weed control at 280.212 g/ha (johnson grass): 75%
pest or weed control at 280.212 g/ha (barnyardgrass [6]): 15%
pest or weed control at 280.212 g/ha (velvetleaf): 80%
pest or weed control at 4000 g/ha (sprangletop; 4.0 Kg/Ha): 80%
plant injury at 280.212 g/ha (rice [7]): 65%
plant injury at 280.212 g/ha (corn): 35%
plant injury at 280.212 g/ha (wheat): 0%
pest or weed control at 280.212 g/ha (pigweed): 50%
plant injury at 280.212 g/ha (soybean): 10%
pest or weed control at 4000 g/ha (barnyardgrass [8]; 4.0 Kg/Ha): 99%

CCN(C)S(=O)(=O)c1ccccc1NS(=O)(=O)c1nc2ncc(Cl)cn2n1 [Compound 132]
minimal effective concentration [2]: 400 µg/mL

O=S(=O)(Nc1ccccc1F)c1nc2ncc(Cl)cn2n1 [Compound 133]
observed effect (preemergence) [2]: stunting
minimal effective concentration [2]: 400 µg/mL

CSc1cccc(NS(=O)(=O)c2nc3ncc(Cl)cn3n2)c1 [Compound 134]
observed effect (preemergence) [2]: stunting
minimal effective concentration [2]: 400 µg/mL

Cc1ccn2nc(S(=O)(=O)Nc3c(Cl)cccc3Cl)nc2n1 [Compound 143, 5-Methyl-N-(2,6-dichlorophenyl)-1,2,4-triazolo[1,5-a]pyrimidine-2-sulfonamide]
pest or weed control at 280.212 g/ha (jimsonweed): 100%
plant injury at 280.212 g/ha (cotton): 100%
pest or weed control at 280.212 g/ha (wild oats): 50%
pest or weed control at 280.212 g/ha (yellow nutsedge [3]): 100%
plant injury at 280.212 g/ha (rape): 95%
pest or weed control at 280.212 g/ha (crabgrass): 100%
plant injury at 280.212 g/ha (sugar beet): 100%
pest or weed control at 31 g/ha (yellow nutsedge [4]; 0.031 Kg/Ha): 93%
pest or weed control at 500 g/ha (yellow nutsedge [4]; 0.5 Kg/Ha): 97%
pest or weed control at 280.212 g/ha (annual morning glory): 90%
pest or weed control at 31 g/ha (rice [5]; 0.031 Kg/Ha): 0%
pest or weed control at 500 g/ha (rice [5]; 0.5 Kg/Ha): 95%
% NH4-N Remaining After 2 Weeks Incubation ([1]; 0.01 ppm): 50%
% NH4-N Remaining After 2 Weeks Incubation ([1]; 0.1 ppm): 78%
% NH4-N Remaining After 2 Weeks Incubation ([1]; 1 ppm): 91%
% NH4-N Remaining After 2 Weeks Incubation ([1]; 10 ppm): 100%
pest or weed control at 280.212 g/ha (yellow foxtail): 97%
plant injury at 280.212 g/ha (sorghum): 99%
pest or weed control at 280.212 g/ha (johnson grass): 100%
pest or weed control at 280.212 g/ha (barnyardgrass [6]): 97%
pest or weed control at 280.212 g/ha (velvetleaf): 97%
pest or weed control at 31 g/ha (sprangletop; 0.031 Kg/Ha): 0%
pest or weed control at 500 g/ha (sprangletop; 0.5 Kg/Ha): 97%
plant injury at 280.212 g/ha (rice [7]): 97%
plant injury at 280.212 g/ha (corn): 95%
plant injury at 280.212 g/ha (wheat): 50%
pest or weed control at 280.212 g/ha (pigweed): 100%
plant injury at 280.212 g/ha (soybean): 70%
pest or weed control at 31 g/ha (barnyardgrass [8]; 0.031 Kg/Ha): 95%
pest or weed control at 500 g/ha (barnyardgrass [8]; 0.5 Kg/Ha): 99%

Cc1nc2nc(S(=O)(=O)Nc3ccccc3Cl)nn2c(C)c1Cl [Compound 198]
% NH4-N Remaining After 2 Weeks Incubation ([1]; 0.06 ppm): 22%
% NH4-N Remaining After 2 Weeks Incubation ([1]; 0.25 ppm): 37%
% NH4-N Remaining After 2 Weeks Incubation ([1]; 1 ppm): 53%
% NH4-N Remaining After 2 Weeks Incubation ([1]; 4 ppm): 74%
observed effect (preemergence) [2]: stunting
minimal effective concentration [2]: 400 µg/mL
